Consider 1 compound from patent US11311576B2, “Methods of use for CAR T cells” (Seattle Children's Hospital, priority 2018, dated 2022).

Holding throughout (experiment): CAR-T cell activation markers (CD69, CD137, PD1) after 24 h co-culture with EC17-preloaded targets
Common to all, as to type: cell-based, human
Common to all, as to conditions: targets preloaded with 100 nM EC17 30 min, E/T 1:1, 24 hours

The subject of one assay is HOS-FRα. On the procedure:
(§1) To study CAR-T cell activation in the presence of FR+ tumor cell targets (FIG. 53), co-culture experiments were initially carried out with MDA-MB-231, THP1-FRβ and HOS-FRα. […] After 24 hours of co-culture, the surface expression of T cell activation markers CD69, CD137 (4-1BB), and PD1 were analyzed by flow cytometry. For T cell exhaustion studies (FIG. 54), FR+(KB, MDA-MB-231, HOS-FRα^fLuc, THP1-FRβ) and FR-negative (HOS-143b^fLuc, THP1-FG12) tumor cell lines were used as targets. Here, target cells were incubated on day 0 without or with 0.1 and 10 nM of EC17 for 30 min at 37° C. and the status of EC17 “pre-loading” was assessed by counterstaining cell-surface EC17 with an anti-FITC antibody (FIG. 61A). Three days later, the surface expression of PD1, LAG3, and TIM3 inhibitor receptors on co-cultured CAR-T cells were analyzed and higher frequencies of double- and triple-positive cells were considered approaching an exhausted phenotype.
(§2) To examine antigen-dependent CAR-T cell activation, MDA-MB-231, THP1-FRβ and HOS-FRα cells were preloaded with 100 nM EC17 over 30 min. […] After 24 hours of co-culture, we measured the surface expression of T cell activation markers CD69, CD137 (4-1BB) and PD1 (FIG. 53). […] Importantly, the mock controls T cells were not activated under these conditions. Some FR+ tumor types (e.g. KB) display a natural resistance to killing by EC17-directed CAR T cells (FIGS. 56, 58, 59, and 60), we studied T cell activation versus exhaustion as a mechanism of EC17 CAM action. Both FR+(KB, MDA-MB-231, HOS-FRα^fLuc, THP1-FRβ) and FR-negative (HOS-143b^fLuc, THP1-FG12) tumor cell lines were chosen for this purpose. HOS-FRα^fLuc expressed ˜5.6× lower level of functional FR than its parent HOS-FRα, and HOS-143b^fLuc was FR-negative similar to HOS-143b (FIG. 59A). […] Three days later, co-cultured CAR-T cells were measured for upregulation and co-expression of T cell activation/exhaustion markers PD1, LAG3 and TIM3. […]

The next assay concerns MDA-MB-231. The method, then: as §1, §2
The subject of a further assay is THP1-FRb. On the procedure: as §1, §2

Regarding `NC1=NC2N=CC(CNc3ccc(C(=O)N[C@@H](CCC(=O)NCCNC(=S)Nc4ccc(-c5c6ccc(=O)cc-6oc6cc(O)ccc56)c(C(=O)O)c4)C(=O)O)cc3)=NC2C(=O)N1` (stereo partly drawn) [EC17, FA-(g)-ethylenediamine-FITC], the “CAR-T cell activation (CD69, CD137, PD1)” value is listed as “strong activators of our CAR-T cells” in the assay on HOS-FRα; “strong activators of our CAR-T cells” in the assay on MDA-MB-231; “did trigger CAR-T cell activation, but at lower levels” in the assay with THP1-FRb.
